# Measured values: BindingDB's records for doi:10.1111/cbdd.12458 (Pontificia Universidad Catolica De Chile, 2015)
# pIC50: −log10 of the molar value.
# Assays:
# [1] = target: T1, Amine oxidase [flavin-containing] B (Rattus norvegicus, UniProt P19643); test: Monoamine Oxidase Inhibition Assay
# T1 sequence (P19643 whole entry): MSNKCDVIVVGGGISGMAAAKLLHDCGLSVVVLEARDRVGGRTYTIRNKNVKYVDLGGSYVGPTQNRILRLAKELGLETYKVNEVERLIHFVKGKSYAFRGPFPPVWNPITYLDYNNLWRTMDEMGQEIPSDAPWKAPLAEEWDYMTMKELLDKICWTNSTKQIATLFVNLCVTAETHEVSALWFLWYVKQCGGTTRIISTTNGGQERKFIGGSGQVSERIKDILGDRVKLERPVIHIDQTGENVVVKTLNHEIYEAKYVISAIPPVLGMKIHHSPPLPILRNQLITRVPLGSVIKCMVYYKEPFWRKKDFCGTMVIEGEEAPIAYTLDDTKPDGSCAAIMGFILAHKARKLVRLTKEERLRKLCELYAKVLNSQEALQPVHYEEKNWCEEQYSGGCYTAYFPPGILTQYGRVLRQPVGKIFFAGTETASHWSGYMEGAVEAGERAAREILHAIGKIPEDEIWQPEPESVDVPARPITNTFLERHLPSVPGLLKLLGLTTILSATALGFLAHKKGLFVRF
# Experimental: (§1) Briefly, a crude rat brain mitochondrial suspension (male Sprague Dawley rats weighing 180 220 g, killed by decapitation) was used as protein source. Serotonin(5-HT, 100 µM) and 4-dimethylaminophenethylamine (DMAPEA, 5 µM) were used as selective substrates for MAO-A and MAO-B, respectively. The reaction mixtures were analyzed with a Merck-Hitachi HPLC (Tokyo, Japan), employing a C18 reverse phase column (Lichrospher 250 9 4.6 mm, 5 µm) and an amperometric detector (Merck Recipe L3500A). Tetrahydrofuran and acetonitrile (Merck) were used as eluents.
# [2] = target: T2, Amine oxidase [flavin-containing] A (Rattus norvegicus, UniProt P21396); test: Monoamine Oxidase Inhibition Assay
# T2 sequence (P21396 whole entry): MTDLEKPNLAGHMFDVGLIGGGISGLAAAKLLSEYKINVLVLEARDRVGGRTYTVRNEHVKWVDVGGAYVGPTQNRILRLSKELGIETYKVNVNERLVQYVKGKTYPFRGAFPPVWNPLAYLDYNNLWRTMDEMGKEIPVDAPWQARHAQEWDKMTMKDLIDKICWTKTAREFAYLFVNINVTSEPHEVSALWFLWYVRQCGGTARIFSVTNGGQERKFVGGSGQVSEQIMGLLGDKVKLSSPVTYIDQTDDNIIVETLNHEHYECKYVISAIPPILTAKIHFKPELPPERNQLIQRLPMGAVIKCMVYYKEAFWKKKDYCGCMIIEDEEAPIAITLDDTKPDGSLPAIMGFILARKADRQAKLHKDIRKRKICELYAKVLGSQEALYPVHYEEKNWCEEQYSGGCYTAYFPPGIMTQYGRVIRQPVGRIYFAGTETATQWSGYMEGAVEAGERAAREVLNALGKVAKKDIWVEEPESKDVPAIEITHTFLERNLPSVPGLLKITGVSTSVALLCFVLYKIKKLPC
# Experimental: as §1
Structure (SMILES),pIC50 [1],pIC50 [2]
"COc1ccc(O)c(C(=O)/C=C/c2cccc(OC)c2OC)c1 [(E)-3-(2,3-Dimethoxyphenyl)-1-(2-hydroxy-5-methoxyphenyl)prop-2-en-1-one (3g)]",5.17,< 4.00
"COc1ccc2c(c1)C(=O)/C(=C/c1cccc(OC)c1OC)O2 [(Z)-2-(2,3-Dimethoxybenzylidene)-5-methoxybenzofuran-3(2H)-one (4g)]",4.94,< 4.00
"COc1cc(/C=C/C(=O)c2c(O)cccc2OC)c(OC)cc1Br [(E)-3-(4-Bromo-2,5-dimethoxyphenyl)-1-(2-hydroxy-6-methoxyphenyl)prop-2-en-1-one (3d)]",5.21,< 4.00
"COc1ccc(OC)c(/C=C/C(=O)c2c(O)cccc2OC)c1 [(E)-3-(2,5-Dimethoxyphenyl)-1-(2-hydroxy-6-methoxyphenyl)prop-2-en-1-one (3a)]",4.96,< 4.00
"COc1ccc(O)c(C(=O)/C=C/c2cc(OC)c(Br)cc2OC)c1 [(E)-3-(4-Bromo-2,5-dimethoxyphenyl)-1-(2-hydroxy-5-methoxyphenyl)prop-2-en-1-one (3h)]",5.55,< 4.00

# Now from value to compound:
pIC50 [1],pIC50 [2],Structure (SMILES)
4.58,< 4.00,"COc1cc(/C=C2\Oc3cccc(OC)c3C2=O)c(OC)cc1Br [(Z)-2-(4-Bromo-2,5-dimethoxybenzylidene)-4-methoxybenzofuran-3(2H)-one (4d)]"
4.75,< 4.00,"COc1ccc(OC)c(/C=C2\Oc3cccc(OC)c3C2=O)c1 [(Z)-2-(2,5-Dimethoxybenzylidene)-4-methoxybenzofuran-3(2H)-one (4a)]"
4.87,< 4.00,"COc1ccc2c(c1)C(=O)/C(=C/c1cc(OC)c(Br)cc1OC)O2 [(Z)-2-(4-Bromo-2,5-dimethoxybenzylidene)-5-methoxybenzofuran-3(2H)-one (4h)]"
